The subject of experiment [1] is Tyk2-pSTAT4 (IL-12 induced pSTAT4). Briefly: IL-12 induced pSTAT4 in human PBMC. The following applies: 1.7 ng/mL IL-12, 30 minutes. Format: cell-based. The method in brief:
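pSTAT4 and total STAT4 quantified by MSD in cell lysates after 30 minutes of 1.7 ng/mL IL-12 stimulation. Beforehand, compound (0.1% DMSO final) sat 1 hr at 37 C on 200,000 thawed buffy-coat PBMC per well in serum-containing medium.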

Experiment [2] addresses JAK2 (Homo sapiens (Human), UniProt O60674). Description: JAK2 radioactive kinase assay. It is filed as biochemical. The following applies: ATP 10 μM. The method in brief: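 Radiometric assay in Hepes pH 7.5, MgCl2, EGTA, Brij35, BSA, DTT, 1% DMSO, with 10 μM [33P]ATP, 120 min at room temp; P81 paper capture and counting. […]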
Experiment [3] deals with JAK2-pSTAT5 (GM-CSF induced pSTAT5). Description: GM-CSF induced pSTAT5 in human PBMC. The note with it: 5 ng/mL GM-CSF. Format: cell-based. The procedure: Human PBMC are isolated from buffy coat and are stored frozen for assays as needed. Cells for assay are thawed and resuspended in complete media containing serum, then cells are diluted to 1.67 E6 cells/ml so that 120 ul per well is 200,000 cells. 15 ul of compound or DMSO is added to the well at the desired concentrations and incubated at 1 hr at 37 C. 15 ul of stimulus (final concentration of 1.7 ng/mL IL-12) is added for 30 minutes prior to pSTAT4 and total STAT4 analysis using cell lysates prepared and analyzed by MSD reagents as per manufacturer protocol. The final DMSO concentration of compound in the assay is 0.1%.
Cells are prepared for analysis as in the above procedure and 15 ul of GM-CSF (final concentration 5 ng/mL) is added for 20 minutes prior to pSTAT5 and total STAT5 analysis using cell lysates prepared and analyzed by MSD reagents as per manufacturer protocol. The final DMSO concentration of compound in the assay is 0.1%.

Experiment [4] deals with TYK2 (Homo sapiens (Human), UniProt P29597). Briefly: Tyk2 radioactive kinase assay. Format: biochemical. The note with it: ATP 10 μM. A digest of the protocol:
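Recombinant human TYK2 (Invitrogen) was mixed with 20 μM peptide substrate in a buffer of 20 mM Hepes pH 7.5, 10 mM MgCl2, 1 mM EGTA, 0.02% Brij35, 0.02 mg/mL BSA, 0.1 mM […], 2 mM DTT and 1% DMSO, and compounds in DMSO were added. Adding ^33P-ATP (10 μM ATP) started the reaction, which ran 120 min at room temperature. Mixtures were then spotted onto P81 ion-exchange paper, washed thoroughly in 0.75% phosphoric acid, and counted for radioactivity.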

Structures are written as SMILES.

By EC50 is commonly meant the midpoint of the concentration-response curve. Read a high EC50 as weaker potency. As usually defined, the Ki is a dissociation constant, usually derived from enzyme kinetics or from competition with a known ligand.

TYK2, sequence (P29597 whole entry): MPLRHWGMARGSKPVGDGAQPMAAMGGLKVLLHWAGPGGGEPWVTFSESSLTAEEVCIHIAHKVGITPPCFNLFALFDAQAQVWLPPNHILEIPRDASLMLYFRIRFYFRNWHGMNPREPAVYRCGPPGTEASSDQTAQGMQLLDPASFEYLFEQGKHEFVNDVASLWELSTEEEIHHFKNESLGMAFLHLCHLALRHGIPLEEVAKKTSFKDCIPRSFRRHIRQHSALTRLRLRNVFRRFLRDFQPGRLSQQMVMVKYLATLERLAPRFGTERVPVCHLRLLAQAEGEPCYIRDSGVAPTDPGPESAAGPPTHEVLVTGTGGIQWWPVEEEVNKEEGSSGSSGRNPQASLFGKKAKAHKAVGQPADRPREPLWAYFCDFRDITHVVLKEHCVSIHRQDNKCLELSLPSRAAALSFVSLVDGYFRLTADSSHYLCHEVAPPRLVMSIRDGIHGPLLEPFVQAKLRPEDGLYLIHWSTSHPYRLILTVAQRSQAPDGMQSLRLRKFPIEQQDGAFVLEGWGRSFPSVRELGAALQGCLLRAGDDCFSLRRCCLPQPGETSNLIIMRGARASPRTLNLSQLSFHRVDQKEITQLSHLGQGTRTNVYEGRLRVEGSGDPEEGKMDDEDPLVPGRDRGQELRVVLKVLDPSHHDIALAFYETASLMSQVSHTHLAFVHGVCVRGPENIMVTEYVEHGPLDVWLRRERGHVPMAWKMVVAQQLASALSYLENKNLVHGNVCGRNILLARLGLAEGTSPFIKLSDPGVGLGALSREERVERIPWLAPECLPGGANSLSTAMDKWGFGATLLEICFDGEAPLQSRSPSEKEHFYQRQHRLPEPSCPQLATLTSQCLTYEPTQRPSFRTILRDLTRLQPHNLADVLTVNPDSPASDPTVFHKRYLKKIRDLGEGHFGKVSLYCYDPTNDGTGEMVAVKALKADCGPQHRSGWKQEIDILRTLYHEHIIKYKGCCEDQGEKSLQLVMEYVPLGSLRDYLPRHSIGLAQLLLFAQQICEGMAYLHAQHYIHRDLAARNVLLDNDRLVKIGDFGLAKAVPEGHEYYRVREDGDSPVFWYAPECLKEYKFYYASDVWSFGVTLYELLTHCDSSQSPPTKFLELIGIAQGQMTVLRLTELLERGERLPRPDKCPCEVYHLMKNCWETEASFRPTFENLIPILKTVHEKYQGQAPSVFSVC
JAK2, sequence (O60674 whole entry): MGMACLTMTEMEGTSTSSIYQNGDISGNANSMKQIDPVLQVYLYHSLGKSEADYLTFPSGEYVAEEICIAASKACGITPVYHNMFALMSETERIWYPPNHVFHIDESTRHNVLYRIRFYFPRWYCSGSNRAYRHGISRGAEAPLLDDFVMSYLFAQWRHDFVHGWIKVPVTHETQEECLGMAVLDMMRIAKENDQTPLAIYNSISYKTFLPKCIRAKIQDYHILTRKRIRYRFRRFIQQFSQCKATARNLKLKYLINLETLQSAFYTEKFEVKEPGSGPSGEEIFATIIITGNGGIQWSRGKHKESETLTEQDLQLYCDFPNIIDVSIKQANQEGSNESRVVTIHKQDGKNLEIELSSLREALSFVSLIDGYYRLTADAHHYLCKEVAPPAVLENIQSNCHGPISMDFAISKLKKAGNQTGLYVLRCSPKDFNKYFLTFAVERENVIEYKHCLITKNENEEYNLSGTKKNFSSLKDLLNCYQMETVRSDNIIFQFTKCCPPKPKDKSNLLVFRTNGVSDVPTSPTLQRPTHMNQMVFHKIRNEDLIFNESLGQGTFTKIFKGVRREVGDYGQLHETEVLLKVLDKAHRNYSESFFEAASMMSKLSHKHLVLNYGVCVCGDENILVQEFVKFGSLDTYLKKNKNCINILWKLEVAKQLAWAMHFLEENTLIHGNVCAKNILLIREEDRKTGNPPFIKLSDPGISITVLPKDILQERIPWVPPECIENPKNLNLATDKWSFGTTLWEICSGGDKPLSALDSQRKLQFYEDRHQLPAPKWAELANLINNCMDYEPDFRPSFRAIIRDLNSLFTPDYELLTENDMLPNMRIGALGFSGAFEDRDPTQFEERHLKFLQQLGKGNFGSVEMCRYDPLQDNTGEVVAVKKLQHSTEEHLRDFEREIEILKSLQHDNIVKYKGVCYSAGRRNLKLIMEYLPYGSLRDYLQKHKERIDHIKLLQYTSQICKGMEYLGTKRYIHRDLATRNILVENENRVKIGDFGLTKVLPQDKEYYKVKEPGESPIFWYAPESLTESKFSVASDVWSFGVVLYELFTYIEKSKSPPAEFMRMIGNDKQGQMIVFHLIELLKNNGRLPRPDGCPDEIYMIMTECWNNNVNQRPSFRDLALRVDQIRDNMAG

Regarding `CO[C@H]1CN(c2ccn(-c3cc(-c4c(F)cccc4C#N)nc4c3C(=O)NC4)n2)CC[C@H]1OC` [I-176, 2-(4-(3-((3S,4R)-3,4-dimethoxypiperidin-1-yl)-1H-pyrazol-1-yl)-5-oxo-6,7-dihydro-5H-pyrrolo[3,4-b]pyridin-2-yl)-3-fluorobenzonitrile], the concentration for a half-maximal effect (EC50) in experiment [1] (Homo sapiens, PBMC, 0.5 h) lay within 100 to 2000 nM; in experiment [3] (Homo sapiens, PBMC, 20 min), 100 to 2000 nM. The Ki in experiment [2] fell in the range of 10 to 100 nM; in experiment [4], 0.1 to 10 nM.
`CO[C@@H]1CCN(c2ccn(-c3cc(-c4c(F)cccc4C#N)nc4c3C(=O)NC4)n2)C[C@H]1O` [I-211, 3-fluoro-2-(4-(3-((3R,4R)-3-hydroxy-4-methoxypiperidin-1-yl)-1H-pyrazol-1-yl)-5-oxo-6,7-dihydro-5H-pyrrolo[3,4-b]pyridin-2-yl)benzonitrile]: the EC50 in experiment [1] is 100 to 2000 nM; in experiment [3] (20 minutes), > 2000 nM. The Ki in experiment [2] was in the range of 10 to 100 nM; in experiment [4] it was 0.1 to 10 nM.
`N#Cc1cccc(F)c1-c1cc(-n2ccc(N3CCCC(N4CCOCC4)C3)n2)c2c(n1)CNC2=O` (stereo not drawn) [I-149, 3-fluoro-2-(4-(3-(3-morpholinopiperidin-1-yl)-1H-pyrazol-1-yl)-5-oxo-6,7-dihydro-5H-pyrrolo[3,4-b]pyridin-2-yl)benzonitrile]: the EC50 is 100 to 2000 nM in experiment [1] (Homo sapiens, PBMC, 0.5 h) and 100 to 2000 nM in experiment [3] (Homo sapiens, PBMC, 20 min). The Ki in experiment [2] lay in the range of 0.1 to 10 nM; in experiment [4], 0.009 to 0.1 nM.
With `CC(C)c1ccn(-c2cc(-c3c(F)cccc3C#N)nc3c2C(=O)NC3)n1` [I-151, 3-fluoro-2-(4-(3-isopropyl-1H-pyrazol-1-yl)-5-oxo-6,7-dihydro-5H-pyrrolo[3,4-b]pyridin-2-yl)benzonitrile], the 50% effective concentration (EC50) in experiment [1] (Homo sapiens, PBMC, 0.5 h) is 100 to 2000 nM; in experiment [3] (Homo sapiens, PBMC, 20 min), > 2000 nM. In addition, the Ki lay within 100 to 1000 nM in experiment [2] and 0.1 to 10 nM in experiment [4].
In the same order, the values of `N#Cc1cccc(F)c1-c1cc(-n2ccc(N3CC[C@H](O)C3)n2)c2c(n1)CNC2=O` [I-79, (S)-3-fluoro-2-(4-(3-(3-hydroxypyrrolidin-1-yl)-1H-pyrazol-1-yl)-5-oxo-6,7-dihydro-5H-pyrrolo[3,4-b]pyridin-2-yl)benzonitrile] are 30 to 100 nM, 100 to 2000 nM, 10 to 100 nM and 0.1 to 10 nM.
As for `N#Cc1cccc(F)c1-c1cc(-n2ccc(N3CCC[C@@H](O)C3)n2)c2c(n1)CNC2=O` [I-69, (R)-3-fluoro-2-(4-(3-(3-hydroxypiperidin-1-yl)-1H-pyrazol-1-yl)-5-oxo-6,7-dihydro-5H-pyrrolo[3,4-b]pyridin-2-yl)benzonitrile], the EC50 is 100 to 2000 nM in experiment [1] (Homo sapiens, PBMC, 0.5 h) and 100 to 2000 nM in experiment [3] (Homo sapiens, PBMC, 20 min). The Ki in experiment [2] is 10 to 100 nM; in experiment [4], 0.1 to 10 nM.
Take `N#Cc1cccc(F)c1-c1cc(-n2ccc(N3CC[C@@H](C#N)[C@H](O)C3)n2)c2c(n1)CNC2=O` [I-217, (3S,4S)-1-(1-(2-(2-cyano-6-fluorophenyl)-5-oxo-6,7-dihydro-5H-pyrrolo[3,4-b]pyridin-4-yl)-1H-pyrazol-3-yl)-3-hydroxypiperidine-4-carbonitrile]: the EC50 lay in the range of 30 to 100 nM in experiment [1] (Homo sapiens, PBMC, 0.5 h) and 100 to 2000 nM in experiment [3] (Homo sapiens, PBMC, 20 min). Besides, the Ki in experiment [2] and in experiment [4] was 0.1 to 10 nM each time.
On to `CC(=O)NC1CCCN(c2ccn(-c3cc(-c4c(F)cccc4C#N)nc4c3C(=O)NC4)n2)C1` (stereo not drawn) [I-123, N-(1-(1-(2-(2-cyano-6-fluorophenyl)-5-oxo-6,7-dihydro-5H-pyrrolo[3,4-b]pyridin-4-yl)-1H-pyrazol-3-yl)piperidin-3-yl)acetamide], for which the concentration for a half-maximal effect (EC50) is 100 to 2000 nM in experiment [1] (Homo sapiens, PBMC, 0.5 h) and > 2000 nM in experiment [3] (Homo sapiens, PBMC, 20 min). Moreover, the Ki in experiment [2] and in experiment [4] was 0.1 to 10 nM throughout.
For the compound `N#Cc1cccc(F)c1-c1cc(-n2ccc(N3CCCC(C(=O)O)C3)n2)c2c(n1)CNC2=O` (stereo not drawn) [I-91, 1-(1-(2-(2-cyano-6-fluorophenyl)-5-oxo-6,7-dihydro-5H-pyrrolo[3,4-b]pyridin-4-yl)-1H-pyrazol-3-yl)piperidine-3-carboxylic acid], the EC50 in experiment [1] (Homo sapiens, PBMC, 0.5 h) was 100 to 2000 nM; in experiment [3] (Homo sapiens, PBMC, 20 min), > 2000 nM. The figures for the Ki in experiment [2] and in experiment [4] were 10 to 100 nM and 0.1 to 10 nM, respectively.
For the compound `CC1(O)CCCN(c2ccn(-c3cc(-c4c(F)cccc4C#N)nc4c3C(=O)NC4)n2)C1` (stereo not drawn) [I-62, 3-fluoro-2-(4-(3-(3-hydroxy-3-methylpiperidin-1-yl)-1H-pyrazol-1-yl)-5-oxo-6,7-dihydro-5H-pyrrolo[3,4-b]pyridin-2-yl)benzonitrile], the EC50 is 100 to 2000 nM in experiment [1] (Homo sapiens, PBMC, 0.5 h) and 100 to 2000 nM in experiment [3] (Homo sapiens, PBMC, 20 min). Also, the inhibition constant (Ki) in experiment [2] was in the range of 10 to 100 nM; in experiment [4], 0.009 to 0.1 nM.
Consider `N#Cc1cccc(F)c1-c1cc(-n2ccc(N3CC[C@]4(CCNC4=O)C3)n2)c2c(n1)CNC2=O` [I-165, (R)-3-fluoro-2-(5-oxo-4-(3-(6-oxo-2,7-diazaspiro[4.4]nonan-2-yl)-1H-pyrazol-1-yl)-6,7-dihydro-5H-pyrrolo[3,4-b]pyridin-2-yl)benzonitrile], for which the EC50 in experiment [1] (Homo sapiens, PBMC, 0.5 h) lay in the range of 100 to 2000 nM; in experiment [3] (Homo sapiens, PBMC, 20 min), 100 to 2000 nM. Also, the Ki in experiment [2] and in experiment [4] was 0.1 to 10 nM in each case.
Consider `[2H]C1([2H])N(c2ccn(-c3cc(-c4c(F)cccc4C#N)nc4c3C(=O)NC4)n2)C([2H])([2H])[C@@]([2H])(O)C1([2H])[2H]` [I-209, (S)-3-fluoro-2-(4-(3-(3-hydroxypyrrolidin-1-yl-2,2,3,4,4,5,5-d7)-1H-pyrazol-1-yl)-5-oxo-6,7-dihydro-5H-pyrrolo[3,4-b]pyridin-2-yl)benzonitrile], for which the concentration giving a half-maximal response (EC50) in experiment [1] (Homo sapiens, PBMC, 0.5 h) is 100 to 2000 nM; in experiment [3] (Homo sapiens, PBMC, 20 min), > 2000 nM. In addition, the Ki in experiment [2] lay within 10 to 100 nM; in experiment [4], 0.1 to 10 nM.
For `CC(C)c1ncn(-c2cc(-c3c(F)cccc3C#N)nc3c2C(=O)NC3)n1` [I-232, 3-fluoro-2-(4-(3-isopropyl-1H-1,2,4-triazol-1-yl)-5-oxo-6,7-dihydro-5H-pyrrolo[3,4-b]pyridin-2-yl)benzonitrile] the same measures were > 2000 nM, 100 to 2000 nM, ≥ 1000 nM and ≥ 1000 nM.
As for `N#Cc1cccc(F)c1-c1cc(-n2ccc(N3CC[C@H](C#N)[C@@H](O)C3)n2)c2c(n1)CNC2=O` [I-216, (3R,4R)-1-(1-(2-(2-cyano-6-fluorophenyl)-5-oxo-6,7-dihydro-5H-pyrrolo[3,4-b]pyridin-4-yl)-1H-pyrazol-3-yl)-3-hydroxypiperidine-4-carbonitrile], the half-maximal effective concentration (EC50) in experiment [1] lay in the range of 30 to 100 nM; in experiment [3] (20 minutes), 100 to 2000 nM. Also, the Ki in experiment [2] and in experiment [4] was 0.1 to 10 nM each time.
Consider `N#Cc1cccc(F)c1-c1cc(-n2ccc(N3CC[C@@H](O)C3)n2)c2c(n1)CNC2=O` [I-78, (R)-3-fluoro-2-(4-(3-(3-hydroxypyrrolidin-1-yl)-1H-pyrazol-1-yl)-5-oxo-6,7-dihydro-5H-pyrrolo[3,4-b]pyridin-2-yl)benzonitrile], for which the EC50 in experiment [1] (Homo sapiens, PBMC, 0.5 h) was in the range of 30 to 100 nM; in experiment [3] (Homo sapiens, PBMC, 20 min), 100 to 2000 nM. In addition, the figures for the Ki in experiment [2] and in experiment [4] were 10 to 100 nM and 0.1 to 10 nM, respectively.
Turning to `CO[C@@H]1CN(c2ccn(-c3cc(-c4c(F)cccc4C#N)nc4c3C(=O)NC4)n2)CC[C@H]1O` [I-195, 3-fluoro-2-(4-(3-((3R,4R)-4-hydroxy-3-methoxypiperidin-1-yl)-1H-pyrazol-1-yl)-5-oxo-6,7-dihydro-5H-pyrrolo[3,4-b]pyridin-2-yl)benzonitrile], the EC50 fell in the range of 30 to 100 nM in experiment [1] (Homo sapiens, PBMC, 0.5 h) and 100 to 2000 nM in experiment [3] (Homo sapiens, PBMC, 20 min). In addition, the Ki in experiment [2] and in experiment [4] was 0.1 to 10 nM in each case.
Take `N#Cc1cccc(F)c1-c1cc(-n2ccc(N3CCCC(C(=O)N4CCCC4)C3)n2)c2c(n1)CNC2=O` (stereo not drawn) [I-152, 3-fluoro-2-(5-oxo-4-(3-(3-(pyrrolidine-1-carbonyl)piperidin-1-yl)-1H-pyrazol-1-yl)-6,7-dihydro-5H-pyrrolo[3,4-b]pyridin-2-yl)benzonitrile]: the EC50 in experiment [1] (Homo sapiens, PBMC, 0.5 h) is 100 to 2000 nM; in experiment [3] (Homo sapiens, PBMC, 20 min), > 2000 nM. Further, the Ki in experiment [2] and in experiment [4] was 0.1 to 10 nM in each case.
In the case of `N#Cc1cccc(F)c1-c1cc(-n2ccc(N3CCOCC(O)C3)n2)c2c(n1)CNC2=O` (stereo not drawn) [I-121, 3-fluoro-2-(4-(3-(6-hydroxy-1,4-oxazepan-4-yl)-1H-pyrazol-1-yl)-5-oxo-6,7-dihydro-5H-pyrrolo[3,4-b]pyridin-2-yl)benzonitrile], the EC50 in experiment [1] (Homo sapiens, PBMC, 0.5 h) is 30 to 100 nM; in experiment [3] (Homo sapiens, PBMC, 20 min), > 2000 nM. The inhibitory constant (Ki) is 10 to 100 nM in experiment [2] and 0.1 to 10 nM in experiment [4].

The values above are taken from patent US10781204B2, “TYK2 inhibitors and uses thereof” (Nimbus Lakshmi, Inc., priority 2015, dated 2020).
